In ChEMBL document CHEMBL1150098, “Makaluvamines H-M and damirone C from the pohnpeian sponge Zyzzya fuliginosa” (J Nat Prod, 1995):
Active and inactive are the calls of the source. No cut-off for these calls is given here.

Key:
HCT-116 = assay: Cytotoxicity against human HCT116 cells; format: functional, cell-based
[1] = target: DNA topoisomerase 2-alpha (Homo sapiens) (UniProt P11388); assay: Inhibition of DNA topoisomerase 2
Sequence of DNA topoisomerase 2-alpha (Homo sapiens) (P11388 whole entry): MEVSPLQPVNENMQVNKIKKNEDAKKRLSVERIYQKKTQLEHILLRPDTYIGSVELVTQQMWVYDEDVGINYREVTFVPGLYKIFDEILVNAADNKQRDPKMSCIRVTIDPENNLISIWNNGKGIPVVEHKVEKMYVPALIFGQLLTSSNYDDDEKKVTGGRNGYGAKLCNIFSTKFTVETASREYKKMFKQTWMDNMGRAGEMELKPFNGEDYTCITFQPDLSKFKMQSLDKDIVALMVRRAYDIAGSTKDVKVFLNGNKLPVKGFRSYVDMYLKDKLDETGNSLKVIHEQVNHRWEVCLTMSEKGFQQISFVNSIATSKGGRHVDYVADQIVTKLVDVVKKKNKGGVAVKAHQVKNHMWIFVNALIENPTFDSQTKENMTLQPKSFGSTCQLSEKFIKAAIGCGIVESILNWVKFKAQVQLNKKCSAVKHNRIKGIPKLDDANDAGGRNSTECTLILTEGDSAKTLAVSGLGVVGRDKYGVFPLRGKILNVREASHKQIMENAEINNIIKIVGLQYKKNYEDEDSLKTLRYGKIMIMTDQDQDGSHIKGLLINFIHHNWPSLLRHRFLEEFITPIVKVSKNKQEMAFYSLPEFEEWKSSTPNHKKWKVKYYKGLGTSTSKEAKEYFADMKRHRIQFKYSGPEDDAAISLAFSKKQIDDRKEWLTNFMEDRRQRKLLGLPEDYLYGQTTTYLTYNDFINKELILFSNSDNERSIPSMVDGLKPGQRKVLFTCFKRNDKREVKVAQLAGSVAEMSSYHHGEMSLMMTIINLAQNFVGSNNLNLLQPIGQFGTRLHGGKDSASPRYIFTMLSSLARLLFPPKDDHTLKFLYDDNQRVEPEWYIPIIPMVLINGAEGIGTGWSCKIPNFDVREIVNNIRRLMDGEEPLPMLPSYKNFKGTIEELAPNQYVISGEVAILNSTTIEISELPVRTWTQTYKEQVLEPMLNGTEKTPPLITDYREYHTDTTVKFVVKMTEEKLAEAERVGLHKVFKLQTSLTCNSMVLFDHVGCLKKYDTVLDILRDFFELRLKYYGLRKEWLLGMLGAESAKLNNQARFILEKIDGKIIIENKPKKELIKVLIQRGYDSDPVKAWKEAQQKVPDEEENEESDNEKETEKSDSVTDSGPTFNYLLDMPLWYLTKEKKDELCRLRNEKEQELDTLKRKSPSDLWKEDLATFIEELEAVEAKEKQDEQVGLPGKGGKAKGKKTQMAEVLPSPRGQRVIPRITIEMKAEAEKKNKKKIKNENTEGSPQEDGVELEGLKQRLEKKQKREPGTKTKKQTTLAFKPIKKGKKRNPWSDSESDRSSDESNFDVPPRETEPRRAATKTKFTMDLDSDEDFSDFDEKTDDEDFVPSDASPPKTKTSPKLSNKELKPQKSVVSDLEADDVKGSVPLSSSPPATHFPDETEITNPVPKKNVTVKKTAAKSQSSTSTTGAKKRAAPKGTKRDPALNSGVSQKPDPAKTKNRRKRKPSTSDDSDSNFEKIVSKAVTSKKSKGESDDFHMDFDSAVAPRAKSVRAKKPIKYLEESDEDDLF

| SMILES | Activity (HCT-116) | Activity [1] |
| --- | --- | --- |
| Cn1cc2c3c1C(=O)C(N)=CC3=[N+](C)CC2 | Active | inactive |
| O=C1C(NC2Cc3cc(Br)c(O)cc3S2)=CC2=NCCc3c[nH]c1c32 (stereo not drawn) | Active | Active |
| Cn1cc2c3c1C(=O)C(N/C=C/c1ccc(O)cc1)=CC3=[N+](C)CC2 | Active | inactive |
| Cn1cc2c3c1C(=O)C(N)=CC3=NCC2 | Active | Active |
| C[N+]1=C2C=C(NCCc3ccc(O)cc3)C(=O)c3[nH]cc(c32)CC1 | Active | inactive |
| O=C1C(NCCc2ccc(O)cc2)=CC2=NCCc3c[nH]c1c32 | Active | inactive |
| O=C1C(N/C=C/c2ccc(O)cc2)=CC2=NCCc3c[nH]c1c32 | Active | inactive |
| C[N+]1=C2C=C(N)C(=O)c3[nH]cc(c32)CC1 | Active | Active |
| Cn1cc2c3c1C(=O)C(N/C=C/c1ccc(O)cc1)=CC3=NCC2 | Active | Active |
| Cn1cc2c3c1C(=O)C(NCCc1ccc(O)cc1)=CC3=NCC2 | Active | inactive |
| NC1=CC2=NCCc3c[nH]c(c32)C1=O | Active | – |
| C[N+]1=C2C=C(N/C=C/c3ccc(O)cc3)C(=O)c3[nH]cc(c32)CC1 | Active | inactive |
